# How the values were obtained:
# Format in all cases: in vivo
# [1] = test system: ducksalad (Heteranthera limosa); assay: Test B flooded paddy test, plant response rating; conditions: 250 g ai/ha; Flood; scale of 0 to 100 where 0 is no effect and 100 is complete control; 13 to 15 days
# Summary of the method: (§1)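 Flooded 3 cm over soil; compound into paddy water; depth kept constant. Greenhouse 13–15 d.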
# [2] = test system: rice (Oryza sativa); assay: Test B flooded paddy test, plant response rating; conditions: 250 g ai/ha; Flood; scale of 0 to 100 where 0 is no effect and 100 is complete control; 13 to 15 days
# Summary of the method: as §1
# [3] = test system: sedge, umbrella (small-flower umbrella sedge, Cyperus difformis); assay: Test B flooded paddy test, plant response rating; conditions: 250 g ai/ha; Flood; scale of 0 to 100 where 0 is no effect and 100 is complete control; 13 to 15 days
# Summary of the method: as §1
# [4] = test system: blackgrass (Alopecurus myosuroides); assay: Test C preemergence, plant response rating; conditions: Preemergence
# Summary of the method: (§2)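 Greenhouse plants rated visually against untreated controls 13–15 d after treatment, scale 0 = no effect to 100 = complete control. Postemergence sprays went onto potted plants 2–18 cm tall (1–4 leaves); preemergence sprays onto soil freshly sown in loam–sand or silt loam, chemicals formulated in non-phytotoxic solvent with surfactant.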
# [5] = test system: corn (Zea mays); assay: Test C preemergence, plant response rating; conditions: Preemergence
# Summary of the method: as §2
# [6] = test system: crabgrass, large (large crabgrass, Digitaria sanguinalis); assay: Test C preemergence, plant response rating; conditions: Preemergence
# Summary of the method: as §2
# [7] = test system: foxtail, giant (giant foxtail, Setaria faberii); assay: Test C preemergence, plant response rating; conditions: Preemergence
# Summary of the method: as §2
# [8] = test system: lambsquarters (Chenopodium album); assay: Test C preemergence, plant response rating; conditions: Preemergence
# Summary of the method: as §2
# [9] = test system: morningglory (Ipomoea coccinea); assay: Test C preemergence, plant response rating; conditions: Preemergence
# Summary of the method: as §2
# [10] = test system: nutsedge, yellow (yellow nutsedge, Cyperus esculentus); assay: Test C preemergence, plant response rating; conditions: Preemergence
# Summary of the method: as §2
# [11] = test system: oilseed rape (Brassica napus); assay: Test C preemergence, plant response rating; conditions: Preemergence
# Summary of the method: as §2
# [12] = test system: ragweed (common ragweed, Ambrosia elatior); assay: Test C preemergence, plant response rating; conditions: Preemergence
# Summary of the method: as §2
# [13] = test system: ryegrass, Italian (Italian ryegrass, Lolium multiflorum); assay: Test C preemergence, plant response rating; conditions: Preemergence
# Summary of the method: as §2
# [14] = test system: soybean (Glycine max); assay: Test C preemergence, plant response rating; conditions: Preemergence
# Summary of the method: as §2
# [15] = test system: velvetleaf (Abutilon theophrasti); assay: Test C preemergence, plant response rating; conditions: Preemergence
# Summary of the method: as §2
# [16] = test system: waterhemp (common waterhemp, Amaranthus rudis); assay: Test C preemergence, plant response rating; conditions: Preemergence
# Summary of the method: as §2
# [17] = test system: wheat (winter wheat, Triticum aestivum); assay: Test C preemergence, plant response rating; conditions: Preemergence
# Summary of the method: as §2
# [18] = test system: surinam grass (Brachiaria decumbens); assay: Test C preemergence, plant response rating
# [19] = test system: wild poinsettia (Euphorbia heterophylla); assay: Test C preemergence, plant response rating
# [20] = test system: oat, wild (wild oat Avena fatua); assay: Test C preemergence, plant response rating
compound,measurement,setting,value
O=C(CCCC(F)(F)F)c1c(Cl)cccc1Oc1ncc(Cl)cn1 [Compound 143],"Plant response rating, Ducksalad",[1],90
same,"Plant response rating, Rice",[2],40
same,"Plant response rating, Sedge, Umbrella",[3],90
same,"Plant response rating, Blackgrass","[4]; 125 g ai/ha, scale of 0 to 100",75
same,"Plant response rating, Blackgrass","[4]; 16 g ai/ha, scale 0 to 100",5
same,"Plant response rating, Blackgrass","[4]; 31 g ai/ha, scale 0 to 100",75
same,"Plant response rating, Blackgrass","[4]; 62 g ai/ha, scale 0 to 100",80
same,"Plant response rating, Corn","[5]; 125 g ai/ha, scale of 0 to 100",20
same,"Plant response rating, Corn","[5]; 16 g ai/ha, scale 0 to 100",5
same,"Plant response rating, Corn","[5]; 31 g ai/ha, scale 0 to 100",0
same,"Plant response rating, Corn","[5]; 62 g ai/ha, scale 0 to 100",0
same,"Plant response rating, Crabgrass, Large","[6]; 125 g ai/ha, scale of 0 to 100",100
same,"Plant response rating, Crabgrass, Large","[6]; 16 g ai/ha, scale 0 to 100",70
same,"Plant response rating, Crabgrass, Large","[6]; 31 g ai/ha, scale 0 to 100",100
same,"Plant response rating, Crabgrass, Large","[6]; 62 g ai/ha, scale 0 to 100",100
same,"Plant response rating, Foxtail, Giant","[7]; 125 g ai/ha, scale of 0 to 100",100
same,"Plant response rating, Foxtail, Giant","[7]; 31 g ai/ha, scale 0 to 100",98
same,"Plant response rating, Foxtail, Giant","[7]; 62 g ai/ha, scale 0 to 100",100
same,"Plant response rating, Lambsquarters","[8]; 125 g ai/ha, scale of 0 to 100",95
same,"Plant response rating, Lambsquarters","[8]; 31 g ai/ha, scale 0 to 100",10
same,"Plant response rating, Lambsquarters","[8]; 62 g ai/ha, scale 0 to 100",95
same,"Plant response rating, Morningglory","[9]; 125 g ai/ha, scale of 0 to 100",25
same,"Plant response rating, Morningglory","[9]; 31 g ai/ha, scale 0 to 100",0
same,"Plant response rating, Morningglory","[9]; 62 g ai/ha, scale 0 to 100",5
same,"Plant response rating, Nutsedge, Yellow","[10]; 125 g ai/ha, scale of 0 to 100",5
same,"Plant response rating, Nutsedge, Yellow","[10]; 31 g ai/ha, scale 0 to 100",0
same,"Plant response rating, Nutsedge, Yellow","[10]; 62 g ai/ha, scale 0 to 100",0
same,"Plant response rating, Oilseed Rape","[11]; 125 g ai/ha, scale of 0 to 100",98
same,"Plant response rating, Oilseed Rape","[11]; 31 g ai/ha, scale 0 to 100",5
same,"Plant response rating, Oilseed Rape","[11]; 62 g ai/ha, scale 0 to 100",80
same,"Plant response rating, Ragweed","[12]; 125 g ai/ha, scale of 0 to 100",5
same,"Plant response rating, Ragweed","[12]; 31 g ai/ha, scale 0 to 100",0
same,"Plant response rating, Ragweed","[12]; 62 g ai/ha, scale 0 to 100",0
same,"Plant response rating, Ryegrass, Italian","[13]; 125 g ai/ha, scale of 0 to 100",45
same,"Plant response rating, Ryegrass, Italian","[13]; 31 g ai/ha, scale 0 to 100",20
same,"Plant response rating, Ryegrass, Italian","[13]; 62 g ai/ha, scale 0 to 100",30
same,"Plant response rating, Soybean","[14]; 125 g ai/ha, scale of 0 to 100",20
same,"Plant response rating, Soybean","[14]; 31 g ai/ha, scale 0 to 100",0
same,"Plant response rating, Soybean","[14]; 62 g ai/ha, scale 0 to 100",15
same,"Plant response rating, Velvetleaf","[15]; 125 g ai/ha, scale of 0 to 100",70
same,"Plant response rating, Velvetleaf","[15]; 31 g ai/ha, scale 0 to 100",10
same,"Plant response rating, Velvetleaf","[15]; 62 g ai/ha, scale 0 to 100",40
same,"Plant response rating, Waterhemp","[16]; 125 g ai/ha, scale of 0 to 100",100
same,"Plant response rating, Waterhemp","[16]; 31 g ai/ha, scale 0 to 100",98
same,"Plant response rating, Waterhemp","[16]; 62 g ai/ha, scale 0 to 100",100
same,"Plant response rating, Wheat","[17]; 125 g ai/ha, scale of 0 to 100",0
same,"Plant response rating, Wheat","[17]; 31 g ai/ha, scale 0 to 100",0
same,"Plant response rating, Wheat","[17]; 62 g ai/ha, scale 0 to 100",0
same,"Plant response rating, Surinam Grass","[18]; 31 g ai/ha, scale 0 to 100",10
same,"Plant response rating, Surinam Grass","[18]; 62 g ai/ha, scale 0 to 100",35
same,"Plant response rating, Surinam Grass","[18]; 125 g ai/ha, scale of 0 to 100",50
same,"Plant response rating, Poinsettia, Wild","[19]; 31 g ai/ha, scale 0 to 100",5
same,"Plant response rating, Poinsettia, Wild","[19]; 62 g ai/ha, scale 0 to 100",20
same,"Plant response rating, Poinsettia, Wild","[19]; 125 g ai/ha, scale of 0 to 100",25
same,"Plant response rating, Oat, Wild","[20]; 31 g ai/ha, scale 0 to 100",0
same,"Plant response rating, Oat, Wild","[20]; 62 g ai/ha, scale 0 to 100",5
same,"Plant response rating, Oat, Wild","[20]; 125 g ai/ha, scale of 0 to 100",5

# Reference: US11053204B2, “Pyrimidinyloxy benzene derivatives as herbicides” (FMC Corporation, priority 2015, dated 2021)
